Source: publication PMC7167818, “Addition of K22 Converts Spider Venom Peptide Pme2a from an Activator to an Inhibitor of NaV1.7” (Biomedicines, 2020)
“Also recorded” adds a separate entry of the source. Bridge positions count the residues as written; N and C are the ends. Peptide text beside a SMILES is read from it.

What was measured:
[1] = target: T1, rTRPV1 (Rattus norvegicus, UniProt O35433); assay: Calcium responses in TRPV1-HEK cells (FLIPR); type: cell-based
T1 construct: expressed in transfected cells
Experimental: HEK293 cells stably expressing rat transient receptor potential vanilloid 1 (TRPV1) were cultured in Dulbecco’s Modified Eagle Medium (DMEM) containing 10% FBS under selection with hygromycin B (100 μg/mL), generated as previously described [16]. Cells were grown in an incubator at 37 °C with 5% CO2 and passaged every 3–4 days (at 70%–80% confluency) using TrypLE Express (Thermo Fisher Scientific, Scoresby, VIC, Australia).
HEK cells stably expressing rTRPV1 were plated 48 h before the assay on 384-well black-walled imaging plates coated with poly D-lysine (ViewPlate-384, Perkin Elmer, Victoria, Australia) at a density of 10,000–15,000 cells/well and loaded with Calcium 4 no-wash dye (Molecular Devices) diluted in PSS and incubated for 30 min at 37 °C. […] Changes in fluorescence were assessed using the FLIPR^TETRA (excitation 470–495 nm, emission 515–575 nm) every 1 s for 300 s after the addition of compounds. Fluorescence responses were quantified by the maximum increase in fluorescence calculated using ScreenWorks 3.2.0.14.
Data were plotted and analysed using GraphPad Prism, version 8.2.0. For concentration–response curves, a four-parameter Hill equation with variable Hill coefficient was fitted to the data. Data are presented as the mean ± SEM.

[2] = tested on: hNaV1.8/β3; assay: Whole-cell automated patch-clamp, peak current at hNaV1.8; type: cell-based, human; details: 10 μM; 5 min incubation; QPatch-16; holding −90 mV, 50 ms pulse to +10 mV every 20 s; 0.1% BSA; mean ± SEM
Experimental: (§1) Human Embryonic Kidney (HEK) 293 cells stably expressing human NaV1.7/β1 (SB Drug Discovery, Glasgow, UK) were cultured in Minimum Essential Medium (MEM) supplemented with 10% fetal bovine serum (FBS), 2 mM L-glutamine, and the selection antibiotics G-418 (0.6 mg/mL) and blasticidin (4 μg/mL), as recommended by the manufacturer. Chinese Hamster Ovary (CHO) cells stably expressing human NaV1.8/β3 in a tetracycline-inducible system (ChanTest, Cleveland, OH, USA) were cultured in MEM supplemented with 10% FBS and 2 mM L-glutamine. Expression of hNaV1.8 was induced by the addition of tetracycline (1 μg/mL) for 48–72 h prior to assays. HEK293 cells stably expressing rat transient receptor potential vanilloid 1 (TRPV1) were cultured in Dulbecco’s Modified Eagle Medium (DMEM) containing 10% FBS under selection with hygromycin B (100 μg/mL), generated as previously described. Cells were grown in an incubator at 37 °C with 5% CO2 and passaged every 3–4 days (at 70%–80% confluency) using TrypLE Express (Thermo Fisher Scientific, Scoresby, VIC, Australia).
(§2) Whole-cell patch-clamp experiments in NaV1.7-HEK cells and NaV1.8-CHO cells were performed on a QPatch-16 automated electrophysiology platform (Sophion Bioscience, Ballerup, Denmark) as previously described. […]
(§3) Data were plotted and analysed using GraphPad Prism, version 8.2.0. […]

[3] = target: T2, hNaV1.7/β1 (Homo sapiens, UniProt Q15858); assay: Whole-cell automated patch-clamp, peak current at hNaV1.7; type: cell-based
Experimental: as §1
(§4) Whole-cell patch-clamp experiments in NaV1.7-HEK cells and NaV1.8-CHO cells were performed on a QPatch-16 automated electrophysiology platform (Sophion Bioscience, Ballerup, Denmark) as previously described. The extracellular solution contained in mM: NaCl 140, KCl 4, CaCl2 2, MgCl2 1, HEPES 10 and glucose 10; pH 7.4; osmolarity 305 mOsm. The intracellular solution contained in mM: CsF 140, EGTA/CsOH 1/5, HEPES 10 and NaCl 10; pH 7.3 with CsOH; osmolarity 320 mOsm. Concentration–response curves were acquired using a holding potential of −90 mV and a 50 ms pulse to −20 mV (for NaV1.7) or +10 mV (for NaV1.8) every 20 s (0.05 Hz). Peptides were diluted in extracellular solution with 0.1% BSA and each peptide concentration was incubated for 5 min. Peak current was normalized to buffer control. The time constant of fast inactivation (τ) was computed by fitting the current decay traces with a single exponential function using the QPatch Assay Software 5.6 (Sophion). […]
as §3

[4] = target: T2, hNaV1.7/β1; assay: Voltage dependence of activation at hNaV1.7 (conductance-voltage curves, patch-clamp); type: cell-based; details: 1 μM, 5 min incubation; holding −90 mV, 500 ms steps −110 to +55 mV in 5 mV increments; Boltzmann fit; n = 3–6 cells per data point
Experimental: as §1, §2, §3

[5] = target: T2, hNaV1.7/β1; assay: Time constant of fast inactivation (τ) at hNaV1.7 (patch-clamp); type: cell-based; details: holding −90 mV, 50 ms pulse to −20 mV, n = 4 cells per data point
Experimental: as §1, §4, §3

T2 sequence (Q07699 19-218): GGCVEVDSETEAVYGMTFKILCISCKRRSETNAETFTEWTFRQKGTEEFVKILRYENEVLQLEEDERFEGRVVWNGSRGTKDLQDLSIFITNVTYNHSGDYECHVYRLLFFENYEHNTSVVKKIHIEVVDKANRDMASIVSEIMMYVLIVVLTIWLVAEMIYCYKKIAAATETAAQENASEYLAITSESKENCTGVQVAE
T2 sequence (Q15858 whole entry): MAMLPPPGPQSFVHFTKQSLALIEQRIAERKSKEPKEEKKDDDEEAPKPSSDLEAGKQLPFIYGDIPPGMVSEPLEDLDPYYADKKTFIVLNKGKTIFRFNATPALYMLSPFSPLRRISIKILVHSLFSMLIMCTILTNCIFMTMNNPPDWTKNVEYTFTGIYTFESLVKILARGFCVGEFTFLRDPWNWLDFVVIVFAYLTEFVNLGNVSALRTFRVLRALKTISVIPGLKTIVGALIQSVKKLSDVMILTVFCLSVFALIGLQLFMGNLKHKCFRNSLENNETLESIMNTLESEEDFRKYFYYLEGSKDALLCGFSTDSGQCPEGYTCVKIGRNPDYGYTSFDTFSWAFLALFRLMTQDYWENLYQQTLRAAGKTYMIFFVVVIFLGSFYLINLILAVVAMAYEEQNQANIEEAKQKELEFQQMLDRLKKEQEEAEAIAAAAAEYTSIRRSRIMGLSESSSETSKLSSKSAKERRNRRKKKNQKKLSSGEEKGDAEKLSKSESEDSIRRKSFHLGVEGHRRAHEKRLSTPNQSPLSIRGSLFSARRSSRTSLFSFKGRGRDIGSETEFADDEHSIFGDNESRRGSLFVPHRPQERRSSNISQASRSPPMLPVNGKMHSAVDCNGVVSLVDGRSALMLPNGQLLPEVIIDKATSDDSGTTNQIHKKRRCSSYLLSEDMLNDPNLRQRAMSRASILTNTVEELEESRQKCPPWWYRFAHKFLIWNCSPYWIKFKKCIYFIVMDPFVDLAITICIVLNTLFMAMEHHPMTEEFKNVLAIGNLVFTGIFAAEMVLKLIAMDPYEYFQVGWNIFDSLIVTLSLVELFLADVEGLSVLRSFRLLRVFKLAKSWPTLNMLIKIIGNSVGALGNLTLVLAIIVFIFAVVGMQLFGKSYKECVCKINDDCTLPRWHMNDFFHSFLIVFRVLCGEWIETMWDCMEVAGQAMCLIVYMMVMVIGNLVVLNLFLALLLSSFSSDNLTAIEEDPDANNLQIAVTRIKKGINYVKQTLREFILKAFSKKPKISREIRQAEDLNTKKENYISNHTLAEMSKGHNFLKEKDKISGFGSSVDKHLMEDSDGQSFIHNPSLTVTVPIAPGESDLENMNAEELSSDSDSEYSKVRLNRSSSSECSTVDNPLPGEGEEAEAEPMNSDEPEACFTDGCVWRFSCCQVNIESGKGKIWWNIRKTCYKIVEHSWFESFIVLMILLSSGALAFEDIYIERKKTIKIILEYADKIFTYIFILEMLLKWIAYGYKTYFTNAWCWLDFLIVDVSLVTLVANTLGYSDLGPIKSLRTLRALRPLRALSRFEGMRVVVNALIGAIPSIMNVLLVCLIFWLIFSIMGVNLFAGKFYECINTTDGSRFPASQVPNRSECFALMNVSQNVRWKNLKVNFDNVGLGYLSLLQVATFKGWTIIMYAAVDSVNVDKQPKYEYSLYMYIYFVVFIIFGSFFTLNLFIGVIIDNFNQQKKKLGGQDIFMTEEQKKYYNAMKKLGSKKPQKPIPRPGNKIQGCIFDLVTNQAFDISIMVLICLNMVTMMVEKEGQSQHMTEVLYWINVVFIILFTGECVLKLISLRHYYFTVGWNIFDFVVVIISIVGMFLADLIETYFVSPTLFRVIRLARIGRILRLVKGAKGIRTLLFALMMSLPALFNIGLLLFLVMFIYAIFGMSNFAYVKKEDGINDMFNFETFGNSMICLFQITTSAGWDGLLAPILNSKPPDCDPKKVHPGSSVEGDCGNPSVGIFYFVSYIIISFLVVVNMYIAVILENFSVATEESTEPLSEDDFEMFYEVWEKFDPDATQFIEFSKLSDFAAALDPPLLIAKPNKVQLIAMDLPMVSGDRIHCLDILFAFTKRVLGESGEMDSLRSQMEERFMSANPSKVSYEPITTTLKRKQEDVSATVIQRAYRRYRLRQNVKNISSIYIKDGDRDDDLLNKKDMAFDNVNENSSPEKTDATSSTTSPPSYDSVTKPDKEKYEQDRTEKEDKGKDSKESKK
T1 sequence (O35433 whole entry): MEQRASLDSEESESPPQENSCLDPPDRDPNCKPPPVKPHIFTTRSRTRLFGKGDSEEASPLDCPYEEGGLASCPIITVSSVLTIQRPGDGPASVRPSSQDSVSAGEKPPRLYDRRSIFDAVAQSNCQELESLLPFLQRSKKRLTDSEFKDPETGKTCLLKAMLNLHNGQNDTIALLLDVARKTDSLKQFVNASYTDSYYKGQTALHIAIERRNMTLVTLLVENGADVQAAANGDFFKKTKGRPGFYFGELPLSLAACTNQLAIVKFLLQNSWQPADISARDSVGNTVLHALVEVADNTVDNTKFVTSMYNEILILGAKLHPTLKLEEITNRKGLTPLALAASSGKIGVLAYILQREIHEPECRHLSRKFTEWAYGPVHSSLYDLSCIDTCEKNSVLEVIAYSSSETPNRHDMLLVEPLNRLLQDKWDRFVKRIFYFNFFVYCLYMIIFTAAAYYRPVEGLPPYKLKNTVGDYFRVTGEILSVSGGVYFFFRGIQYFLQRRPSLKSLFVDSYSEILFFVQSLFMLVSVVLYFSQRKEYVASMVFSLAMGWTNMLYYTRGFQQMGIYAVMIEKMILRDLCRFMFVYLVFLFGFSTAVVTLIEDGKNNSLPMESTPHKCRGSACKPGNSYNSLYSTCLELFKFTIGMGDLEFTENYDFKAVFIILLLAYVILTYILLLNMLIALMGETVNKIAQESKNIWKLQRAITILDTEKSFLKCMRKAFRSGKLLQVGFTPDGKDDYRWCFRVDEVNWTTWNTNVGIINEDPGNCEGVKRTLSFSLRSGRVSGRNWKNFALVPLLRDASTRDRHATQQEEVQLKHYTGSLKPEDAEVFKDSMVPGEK

Row | Compound | activity on TRPV1 ([1]; rTRPV1-HEK293, Calcium 4 dye, up to 30 μM, n = 3–5 wells per data point) | inhibition of peak current at NaV1.8 [2] | IC50 ([3]; 5 min incubation per concentration, QPatch-16, holding −90 mV, 50 ms pulse to −20 mV every 20 s, 0.1% BSA, mean ± SEM, n = 3–6 cells per data point, read-out: IC50 (inhibition of NaV1.7 peak current)) | shift of V1/2 of voltage dependence of activation (Δ) [4] | activity at TRPV1 ([1]; rTRPV1-HEK293, data not shown, concentration not given) | EC50 ([3]; abstract, QPatch-16, holding −90 mV, 50 ms pulse to −20 mV, read-out: EC50 as given in abstract: delays fast inactivation and inhibits NaV1.7 peak current) | pharmacology at NaV1.7 (activator / inhibitor) ([3]; authors' summary in discussion) | EC50 ([5]; 5 min incubation, τ from single exponential fit, read-out: estimated EC50 (delay of fast inactivation)) | effect on fast inactivation [5]
1 | CSCC[C@@H]1NC(=O)[C@H](CCCCN)NC(=O)[C@@H]2CSSC[C@@H]3NC(=O)CNC(=O)CNC(=O)[C@H](CC(C)C)NC(=O)[C@H](Cc4ccccc4)NC(=O)[C@H](Cc4ccc(O)cc4)NC(=O)[C@H](CCCNC(=N)N)NC(=O)[C@@H](NC(=O)CNC(=O)CN)CSSC[C@H](NC(=O)[C@H](CSSC[C@@H](C(=O)N[C@@H](C)C(=O)N[C@@H](Cc4c[nH]c5ccccc45)C(=O)N[C@@H](CC(=O)O)C(=O)NCC(=O)N[C@H](C(=O)N[C@@H](Cc4ccccc4)C(N)=O)[C@@H](C)O)NC(=O)[C@H](Cc4ccc(O)cc4)NC(=O)[C@H](CC(N)=O)NC(=O)[C@H](CC(C)C)NC(=O)CNC1=O)NC(=O)[C@H](CC(=O)O)NC(=O)[C@H](CO)NC(=O)[C@H](Cc1c[nH]cn1)NC(=O)[C@H](CCC(=O)O)NC(=O)[C@H](CO)NC3=O)C(=O)N[C@@H](CCC(=O)O)C(=O)N[C@@H](Cc1c[nH]cn1)C(=O)N[C@@H](CC(C)C)C(=O)N[C@@H](CCCNC(=N)N)C(=O)N2 [Pme1a] (H-GGCRYFLGGCSEHSDCCEHLRCKMGLNYCAWDGTF-NH2; disulfide 3-17, 10-22, 16-29 (inferred); N-terminus assumed) | no activity | 21 ± 2% | 334 ± 114 nM | +11.6 mV | – | – | – | – | –
2 | CSCC[C@@H]1NC(=O)[C@H](Cc2ccccc2)NC(=O)[C@H](CCCCN)NC(=O)[C@H]([C@@H](C)O)NC(=O)[C@@H](NC(=O)CN)CSSC[C@@H]2NC(=O)[C@@H]3CSSC[C@@H](C(=O)NCC(=O)N[C@@H](Cc4c[nH]c5ccccc45)C(=O)N[C@@H](CC(=O)O)C(=O)NCC(=O)N[C@H](C(=O)N[C@@H](Cc4ccccc4)C(N)=O)[C@@H](C)O)NC(=O)[C@H](Cc4c[nH]c5ccccc45)NC(=O)[C@H](CCCCN)NC(=O)[C@H](Cc4ccc(O)cc4)NC(=O)[C@H](CCCCN)NC(=O)[C@H](Cc4ccc(O)cc4)NC(=O)[C@H](CSSC[C@H](NC(=O)[C@H](CO)NC(=O)CNC1=O)C(=O)N[C@@H](CCCCN)C(=O)N[C@@H]([C@@H](C)O)C(=O)N[C@@H](CC(=O)O)C(=O)N[C@@H](C)C(=O)N[C@@H](CC(=O)O)C(=O)N3)NC(=O)[C@H](CCC(=O)O)NC(=O)[C@H](CC(C)C)NC(=O)[C@H](Cc1c[nH]cn1)NC(=O)[C@H](CCC(=O)O)NC2=O [Pme2a] (H-GCTKFMGSCKTDADCCEHLECYKYKWCGWDGTF-NH2; disulfide 2-16, 9-21, 15-27 (inferred); N-terminus assumed) | – | 22 ± 4% | – | – | no activity | > 10 µM | NaV1.7 channel activator | > 10 µM | concentration-dependently delaying-fast inactivation; also recorded: concentration-dependently increases the time constant of fast inactivation (τ)
3 | CSCC[C@@H]1NC(=O)[C@H](Cc2ccccc2)NC(=O)[C@H](CCCCN)NC(=O)[C@H]([C@@H](C)O)NC(=O)[C@@H](NC(=O)CN)CSSC[C@@H]2NC(=O)[C@@H]3CSSC[C@@H](C(=O)NCC(=O)N[C@@H](Cc4c[nH]c5ccccc45)C(=O)N[C@@H](CC(=O)O)C(=O)NCC(=O)N[C@H](C(=O)N[C@@H](Cc4ccccc4)C(N)=O)[C@@H](C)O)NC(=O)[C@H](Cc4c[nH]c5ccccc45)NC(=O)[C@H](CCCCN)NC(=O)[C@H](Cc4ccc(O)cc4)NC(=O)[C@H](CCCCN)NC(=O)[C@H](Cc4ccc(O)cc4)NC(=O)[C@H](CCCCN)NC(=O)[C@H](CSSC[C@H](NC(=O)[C@H](CO)NC(=O)CNC1=O)C(=O)N[C@@H](CCCCN)C(=O)N[C@@H]([C@@H](C)O)C(=O)N[C@@H](CC(=O)O)C(=O)N[C@@H](C)C(=O)N[C@@H](CC(=O)O)C(=O)N3)NC(=O)[C@H](CCC(=O)O)NC(=O)[C@H](CC(C)C)NC(=O)[C@H](Cc1c[nH]cn1)NC(=O)[C@H](CCC(=O)O)NC2=O [[+22K]Pme2a] (H-GCTKFMGSCKTDADCCEHLECKYKYKWCGWDGTF-NH2; disulfide 2-16, 9-21, 15-28 (inferred); N-terminus assumed) | – | – | – | – | – | – | – | – | removed the effect of the native peptide on fast inactivation; also recorded: without the delay in fast activation seen with the native peptide
